Measurements: US9278093B2, “Aldosterone synthase inhibitors” (Merck Sharp & Dohme Corp., priority 2012, dated 2016)

Columns and labels:
human CYP11B1 = human CYP11B1 (Homo sapiens (Human), UniProt P15538); assay: V79-Human-CYP11B1 Assay; type: cell-based; conditions: V79MZh11B1 cells, substrate deoxycorticosterone 100 nM, 25 min incubation
Protocol: (§1) V79MZh11B1 and V79MZh11B2 cells (8×10^5 cells/well) were grown on 24-well culture plates until confluence. Before testing, the DMEM culture medium was removed and 450 μl of fresh DMEM containing the inhibitor was added to each well. After a preincubation step of 60 min at 37° C., the reaction was started by the addition of 50 μl of DMEM in which the substrate deoxycorticosterone (containing 0.15 μCi of [1,2-3H]-deoxycorticosterone in ethanol, final test concentration 100 nM) was dissolved. Incubation times were 25 min for V79MZh11B1 and 50 min for V79MZh11B2 cells at 37° C., respectively. The enzyme reactions were stopped by extracting the supernatant with ethyl acetate. Samples were centrifuged (10.000 g, 5 min) and the solvent was pipetted into fresh cups. After evaporation of the solvent, the steroids were redissolved in 40 μl of […] and analyzed by HPLC. Detection and quantification of the steroids were performed using a radioflow detector. To first estimate the different IC50 values, five different concentrations ranging from 1 to 10.000 nM were measured. For the following IC50 determination, three different concentrations (repeat-determinations) were measured for each […] value of each inhibitor in which the second concentration led to an inhibition of approximately 40 to 60%. […] The final IC50 value was estimated as the average of three or four independent IC50 values and a selectivity factor corresponding to the ratio between the […] values of CYP11B1 and CYP11B2 was calculated for each substance.

human CYP11B2 = human CYP11B2 (Homo sapiens (Human), UniProt P19099); assay: V79-Human-CYP11B2 Assay; type: cell-based; conditions: V79MZh11B2 cells, substrate deoxycorticosterone 100 nM, 50 min incubation
Protocol: as §1

Sequence of human CYP11B1 (P15538 25-503): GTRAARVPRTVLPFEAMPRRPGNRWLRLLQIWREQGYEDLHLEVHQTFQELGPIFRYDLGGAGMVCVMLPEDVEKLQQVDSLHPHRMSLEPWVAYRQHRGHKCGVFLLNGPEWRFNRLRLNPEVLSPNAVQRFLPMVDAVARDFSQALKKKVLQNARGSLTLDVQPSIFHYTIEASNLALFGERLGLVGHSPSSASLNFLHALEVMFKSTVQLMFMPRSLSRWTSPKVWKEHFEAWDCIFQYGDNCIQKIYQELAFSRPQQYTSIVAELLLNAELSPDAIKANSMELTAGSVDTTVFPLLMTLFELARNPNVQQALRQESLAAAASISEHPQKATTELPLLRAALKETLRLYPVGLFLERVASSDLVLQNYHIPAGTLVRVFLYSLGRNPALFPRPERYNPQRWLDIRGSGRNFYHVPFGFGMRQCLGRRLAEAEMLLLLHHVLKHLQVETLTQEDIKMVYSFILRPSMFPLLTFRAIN
Sequence of human CYP11B2 (P19099 25-503): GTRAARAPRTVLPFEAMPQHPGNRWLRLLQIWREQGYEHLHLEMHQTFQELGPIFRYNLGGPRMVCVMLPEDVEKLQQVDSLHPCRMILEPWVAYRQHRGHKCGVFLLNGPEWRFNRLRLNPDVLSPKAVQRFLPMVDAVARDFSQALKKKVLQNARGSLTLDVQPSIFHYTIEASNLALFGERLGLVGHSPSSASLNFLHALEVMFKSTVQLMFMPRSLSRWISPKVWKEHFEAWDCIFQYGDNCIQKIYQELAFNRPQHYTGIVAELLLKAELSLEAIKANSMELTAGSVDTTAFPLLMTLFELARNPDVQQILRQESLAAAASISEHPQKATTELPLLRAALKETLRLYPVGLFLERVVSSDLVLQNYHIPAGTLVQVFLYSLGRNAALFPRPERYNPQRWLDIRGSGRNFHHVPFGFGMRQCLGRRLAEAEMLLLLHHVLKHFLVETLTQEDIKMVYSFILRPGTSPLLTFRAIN

IC50 (human CYP11B1)	IC50 (human CYP11B2)	SMILES
3.97 µM	0.0095 µM	Cc1nnc2n1-c1c(F)cc(-c3cncc(F)c3C(C)C)cc1CC2 [Example 3, 9-fluoro-7-(5-fluoro-4-isopropylpyridin-3-yl)-1-methyl-4,5-dihydro-[1,2,4]triazolo[4,3-a]quinoline]
2.29 µM	0.0073 µM	Cc1nnc2n1-c1c(F)cc(-c3cncc(F)c3C3CC3)cc1CC2 [Example 1, 7-(4-cyclopropyl-5-fluoropyridin-3-yl)-9-fluoro-1-methyl-4,5-dihydro-[1,2,4]triazolo[4,3-a]quinoline]
9.8 µM	0.0216 µM	Cc1nnc2n1-c1c(F)cc(-c3cncc(F)c3Cl)cc1CC2 [Example 4, 7-(4-chloro-5-fluoropyridin-3-yl)-9-fluoro-1-methyl-4,5-dihydro-[1,2,4]triazolo[4,3-a]quinoline]
1.42 µM	0.006 µM	Cc1c(F)cncc1-c1cc(F)c2c(c1)CCc1nnc(C)n1-2 [Example 2, 9-fluoro-7-(5-fluoro-4-methylpyridin-3-yl)-1-methyl-4,5-dihydro-[1,2,4]triazolo[4,3-a]quinoline]
